Legend:
CT26 and EMT6 cells = experiment: Re-implantation of CT26 and EMT6 cells into mice with exceptional responses (immunologic memory); type: in vivo, mouse; settings: previous αPD-L1 + Compound 1
Method: Combination studies were performed by vivoPharm (Hummelstown, Pa., USA). All procedures used in the performance of these studies were carried out in accordance with vivoPharm's Standard Operating Procedures, with particular reference to US_SOPvP_EF0314 “General Procedures for Efficacy Studies.” CT26 colon carcinoma cells (1×10^6 cells/mouse in 100 μL, passage 2-3) were re-suspended in serum-free DMEM and implanted in the upper right flank of 11-12 week old female Balb/c mice (Charles River Laboratories). Mice were randomized into four groups of 10 using a matched pair distribution method based on tumor size for CT26. Treatment was initiated 12 days post-inoculation with mean tumor volume at start of dosing of 125.85 mm^3. Vehicle or Compound 1 (40 mg/kg) was administered by oral gavage daily for 26 days and isotype control or a reverse chimera anti-PD-L1 cloned from literature reports (e.g., Deng, R. et al. MAbs (2016), the content of which is incorporated herein by reference in entirety) and placed into a mouse IgG1 framework (10 mg/kg) was administered every 5 days for a total of six doses. Investigators were not blinded to treatment groups. […] Mice were sacrificed on Day 13 and lung metastases were quantified (small ≤1 mm, medium >1 mm and ≤3 mm, large >3 mm). No large lung metastases were detected.

off-target kinases = molecular target: T1, off-target kinases (Homo sapiens, UniProt O43318); experiment: SelectScreen Kinase Profiling, single point inhibition and IC50 for off-target kinases; type: biochemical; design: other: MAP3K7/MAP3K7IP1 (TAK1-TAB1); 1000 μM; fused on or other part: TAB1 (MAP3K7IP1, Q15750), either fused to TAK1 or present as a separate partner chain; settings: MAP3K7/MAP3K7IP1 (TAK1-TAB1); LanthaScreen Binding; 1000 μM
T1 sequence (O43318 1-606): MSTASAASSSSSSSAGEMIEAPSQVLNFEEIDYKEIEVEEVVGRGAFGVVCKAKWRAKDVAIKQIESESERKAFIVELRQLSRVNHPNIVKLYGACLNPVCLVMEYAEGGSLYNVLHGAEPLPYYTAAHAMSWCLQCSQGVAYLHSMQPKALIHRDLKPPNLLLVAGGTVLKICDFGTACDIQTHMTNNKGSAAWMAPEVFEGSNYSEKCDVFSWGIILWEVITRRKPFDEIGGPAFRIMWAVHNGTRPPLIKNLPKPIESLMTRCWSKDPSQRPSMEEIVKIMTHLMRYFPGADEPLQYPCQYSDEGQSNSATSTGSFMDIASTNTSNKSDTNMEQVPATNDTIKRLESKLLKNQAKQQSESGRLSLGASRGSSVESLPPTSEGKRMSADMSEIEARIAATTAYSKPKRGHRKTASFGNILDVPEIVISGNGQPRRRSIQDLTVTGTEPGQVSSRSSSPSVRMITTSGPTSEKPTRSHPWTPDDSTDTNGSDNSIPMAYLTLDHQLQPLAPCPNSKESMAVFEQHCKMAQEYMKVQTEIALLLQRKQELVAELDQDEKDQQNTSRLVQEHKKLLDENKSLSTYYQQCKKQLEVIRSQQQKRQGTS
Method: Biochemical single point inhibition and IC50 concentrations for TBK1, IKKε (IKBKE), and off-target kinases were determined at ThermoFisher Scientific using SelectScreen Kinase Profiling Services (Madison, Wis., USA) (Tables S4A and S4B-1-7). To determine cellular potency, the human colorectal cancer carcinoma cell line HCT116 (ATCC, Manassas, Va.) was maintained in T175 flasks in complete RPMI medium; RPMI 1640 supplemented with 10% FBS, 1× Penicillin-Streptomycin solution and 1×MEM (non-essential amino acids). HCT116 cells were grown to 90-95% confluency in T175 flasks containing complete RPMI medium and transfected in bulk using Lipofectamine 2000 (Invitrogen, Carlsbad, Calif.) with 70 μg of ISG54-luciferase reporter plasmid (Elim Biopharmaceuticals Inc., Hayward, Calif.). The reporter plasmid contains a luciferase gene expression cassette under the transcriptional regulation of the promoter of the human interferon stimulated gene 54 (ISG54). […] The assay plates were incubated for 5 hours at 37° C., followed by addition of One-Glo luciferase firefly reagent (Promega, Madison, Wis.) at 1:1 volume/well and luminescence was measured in an EnVision Multilabel Plate Reader (PerkinElmer, Santa Clara, Calif.). The EC50 values were calculated from the fit of the dose-response curves to a four-parameter equation. […]

In the case of `N#Cc1cc(-c2ncnc(Nc3ccc(N4CCN(C5COC5)CC4)cc3)n2)ccc1OC1CCOCC1` [Compound 1, 5-(4-((4-(4-(oxetan-3-yl)piperazin-1-yl)phenyl)amino)-1,3,5-triazin-2-yl)-2-((tetrahydro-2H-pyran-4-yl)oxy)benzonitrile], the “growth of reimplanted CT26 in mice with exceptional responses to combination therapy” value (CT26 and EMT6 cells) is reported as “no growth” and the “% Inhibition 1” value (off-target kinases) is reported as 22%.
